Data published in BindingDB's records for doi:10.1016/j.bioorg.2017.04.005 (Shenyang Pharmaceutical University, 2017).
Where a SMILES comes first, the peptide text is derived from it. [ ]: non-standard residue; d: D form. pY = N[C@@H](Cc1ccc(OP(=O)(O)O)cc1)C(=O)O

target: T1, Histone-lysine N-methyltransferase EHMT2 (Homo sapiens, UniProt Q96KQ7); experiment: Enzymatic Assay; settings: pH 8.5; 25 °C
T1 sequence (Q96KQ7 whole entry): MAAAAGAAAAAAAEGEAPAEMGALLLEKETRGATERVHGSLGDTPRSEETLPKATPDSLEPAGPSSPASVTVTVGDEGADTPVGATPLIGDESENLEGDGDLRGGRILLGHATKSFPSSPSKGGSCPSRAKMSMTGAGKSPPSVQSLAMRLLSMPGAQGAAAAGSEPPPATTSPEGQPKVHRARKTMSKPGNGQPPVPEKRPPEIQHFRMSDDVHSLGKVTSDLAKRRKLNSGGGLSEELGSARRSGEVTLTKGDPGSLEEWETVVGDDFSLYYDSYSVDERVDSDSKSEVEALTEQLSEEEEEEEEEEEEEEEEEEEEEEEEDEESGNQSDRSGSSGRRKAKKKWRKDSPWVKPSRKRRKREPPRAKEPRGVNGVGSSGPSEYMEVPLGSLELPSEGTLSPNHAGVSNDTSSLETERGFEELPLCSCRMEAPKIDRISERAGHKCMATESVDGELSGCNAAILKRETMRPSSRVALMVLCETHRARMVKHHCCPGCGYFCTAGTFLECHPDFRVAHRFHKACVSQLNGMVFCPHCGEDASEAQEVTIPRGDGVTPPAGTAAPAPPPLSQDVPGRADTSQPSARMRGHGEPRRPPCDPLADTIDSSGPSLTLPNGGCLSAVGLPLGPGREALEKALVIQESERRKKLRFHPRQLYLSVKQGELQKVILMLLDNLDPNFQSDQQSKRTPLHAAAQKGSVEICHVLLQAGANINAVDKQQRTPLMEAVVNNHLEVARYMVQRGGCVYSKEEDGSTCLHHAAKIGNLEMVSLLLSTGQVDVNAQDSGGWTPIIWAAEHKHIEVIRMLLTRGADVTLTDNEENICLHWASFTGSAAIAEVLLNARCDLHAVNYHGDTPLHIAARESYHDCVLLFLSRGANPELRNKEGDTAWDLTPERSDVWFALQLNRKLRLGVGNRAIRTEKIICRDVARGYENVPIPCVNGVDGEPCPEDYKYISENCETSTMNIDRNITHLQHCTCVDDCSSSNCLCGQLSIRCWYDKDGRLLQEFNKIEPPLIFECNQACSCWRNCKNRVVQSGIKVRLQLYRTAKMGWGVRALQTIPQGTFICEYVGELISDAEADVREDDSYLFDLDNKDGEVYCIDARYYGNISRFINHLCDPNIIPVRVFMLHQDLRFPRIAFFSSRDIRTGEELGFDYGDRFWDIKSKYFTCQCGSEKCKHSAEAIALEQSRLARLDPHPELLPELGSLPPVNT
Method: Biochemical activity of G9a was measured as described [Kubicek et al., Mol. Cell, 25:473-481]. Assays were performed in white, opaque 384-well plates coated with Neutravidin (Pierce Biotechnology). Brd 4770 was used as a positive control. Test compounds were diluted to 12 μg/ml in Baffer A (50 mM Tris-HCl pH 8.5 containing 4% DMSO) and 10 μl was dispensed into the wells. Blank and control wells received only compound buffer. GST-G9a at 10 μg/ml and SAM at 40 μM were diluted in Buffer B (50 mM Tris HCl pH 8.5/10 mM DTT) and added in a volume of 20 μL. Blank wells received Tris/DTT buffer only. The reactions were initiated by the addition of 800 nM H3 (1-20)-cysbiotin substrate in Buffer C (50 mM Tris pH 8.5) in a volume of 10 μL, and incubated at room temperature for 60 min. The plates were washed 3 times with 100 μL of Wash Buffer (50 mM Tris pH 7.4, 150 mM NaCl, 0.05% Tween 20, 0.2% BSA). Next, 50 μl of Fluoroimmunoassay (FI) Buffer (50 mM Tris HCl pH 7.8, 150 mM NaCl, 0.05% Tween 40, 25 μM DTPA, 0.2% BSA, 0.05% BGG) containing 5 ng α-2X-di-meth H3-K9 and 5 ng goat anti-rabbit Eu chelate (Perkin Elmer Life Sciences) was added to all wells of the plate, and the plate was incubated for an additional hour at room temperature. The plates were washed 3 times with 100 μL of Wash Buffer, and 50 μL of Enhancement Solution (Perkin Elmer Life Sciences) was added to each well. Time resolved fluorescence was measured after 45 min on a Viewlux Microplate Imager (Perkin Elmer Life Sciences) imaging for 15 s with a 354 μs window, 400 μs delay, excitation at 360 nm, and emission at 618 nm.

IC50 [µM]	SMILES
20.8	O=S(=O)(Nc1ccc2c(c1)nc(-c1ccccc1)n2CCCc1ccccc1)c1ccccc1Br [2-Bromo-N-(2-phenyl-1-(3-phenylpropyl)-1H-benzo[d]imidazol-5-yl)benzenesulfonamide (19)]
> 40	O=S(=O)(Nc1ccc2nc(-c3ccccc3)oc2c1)c1ccccc1Br [2-Bromo-N-(2-phenylbenzo[d]oxazol-6-yl)benzenesulfonamide (8)]
9.59	O=C(Nc1ccc2c(c1)nc(-c1ccccc1)n2CCCc1ccccc1)c1ccccc1F [2-Fluoro-N-(2-phenyl-1-(3-phenylpropyl)-1H-benzo[d]imidazol-5-yl)benzamide (21)]
> 40	O=C(Nc1ccc2nc(-c3ccccc3)oc2c1)c1ccccc1F [2-Fluoro-N-(2-phenylbenzo[d]oxazol-6-yl)benzamide (11)]
1.75	COc1ccccc1C(=O)Nc1ccc2c(c1)nc(-c1ccccc1)n2CCCc1ccccc1 [2-Methoxy-N-(2-phenyl-1-(3-phenylpropyl)-1H-benzo[d]imidazol-5-yl)benzamide (23)]
2.63	COc1ccccc1S(=O)(=O)Nc1ccc2c(c1)nc(-c1ccccc1)n2CCCc1ccccc1 [2-Methoxy-N-(2-phenyl-1-(3-phenylpropyl)-1H-benzo[d]imidazol-5-yl)benzenesulfonamide (14)]
12.8	COc1ccccc1C(=O)Nc1ccc2nc(-c3ccccc3)oc2c1 [2-Methoxy-N-(2-phenylbenzo[d]oxazol-6-yl)benzamide (10)]
1.32	O=C(Nc1ccc2c(c1)nc(-c1ccccc1)n2CCCc1ccccc1)c1cccc(Br)c1 [3-Bromo-N-(2-phenyl-1-(3-phenylpropyl)-1H-benzo[d]imidazol-5-yl)benzamide (22)]
15.3	O=C(Nc1ccc2nc(-c3ccccc3)oc2c1)c1cccc(Br)c1 [3-Bromo-N-(2-phenylbenzo[d]oxazol-6-yl)benzamide (12)]
35.4	O=[N+]([O-])c1cccc(S(=O)(=O)Nc2ccc3c(c2)nc(-c2ccccc2)n3CCCc2ccccc2)c1 [3-Nitro-N-(2-phenyl-1-(3-phenylpropyl)-1H-benzo[d]imidazol-5-yl)benzenesulfonamide (13)]
16.3	CC(C)(C)c1ccc(S(=O)(=O)Nc2ccc3c(c2)nc(-c2ccccc2)n3CCCc2ccccc2)cc1 [4-(tert-Butyl)-N-(2-phenyl-1-(3-phenylpropyl)-1H-benzo[d]imidazol-5-yl)benzenesulfonamide (20)]
36.3	CC(C)(C)c1ccc(S(=O)(=O)Nc2ccc3nc(-c4ccccc4)oc3c2)cc1 [4-(tert-Butyl)-N-(2-phenylbenzo[d]oxazol-6-yl)benzenesulfonamide (9)]
18.8	N#Cc1ccc(S(=O)(=O)Nc2ccc3c(c2)nc(-c2ccccc2)n3CCCc2ccccc2)cc1 [4-Cyano-N-(2-phenyl-1-(3-phenylpropyl)-1H-benzo[d]imidazol-5-yl)benzenesulfonamide (18)]
30.4	N#Cc1ccc(S(=O)(=O)Nc2ccc3nc(-c4ccccc4)oc3c2)cc1 [4-Cyano-N-(2-phenylbenzo[d]oxazol-6-yl)benzenesulfonamide (7)]
16.1	O=S(=O)(Nc1ccc2c(c1)nc(-c1ccccc1)n2CCCc1ccccc1)c1ccc(F)cc1 [4-Fluoro-N-(2-phenyl-1-(3-phenylpropyl)-1H-benzo[d]imidazol-5-yl)benzenesulfonamide (17)]
6.1	COC(=O)c1ccc2c(c1)nc(NC(=O)c1ccccc1)n2CCCc1ccccc1 [Brd4470]
15.3	CC(C)C[C@H](NC(=O)[C@H](CC(N)=O)NC(=O)[C@@H](N)CC(=O)O)C(=O)N[C@@H](Cc1ccc(O)cc1)C(=O)N[C@@H](Cc1ccc(OP(=O)(O)O)cc1)C(=O)N[C@@H](Cc1c[nH]c2ccccc12)C(=O)N[C@@H](CC(=O)O)C(=O)N[C@@H](CCC(N)=O)C(=O)N[C@@H](CC(=O)O)C(=O)N1CCC[C@H]1C(=O)N1CCC[C@H]1C(=O)O [ErbB2-pep] (H-DNLY[pY]WDQDPP-OH)
19	CC(C)[C@H](NC(=O)[C@@H](N)CCC(=O)O)C(=O)N[C@@H](CO)C(=O)N[C@@H](Cc1ccccc1)C(=O)N[C@@H](Cc1ccc(OP(=O)(O)O)cc1)C(=O)N[C@@H](Cc1ccc(O)cc1)C(=O)N[C@@H](CO)C(=O)N[C@@H](CCC(=O)O)C(=O)N[C@@H](CCC(=O)O)C(=O)N[C@@H](CC(N)=O)C(=O)N[C@@H](CCCCN)C(=O)O [IGF1R-pep] (H-EVSF[pY]YSEENK-OH)
26.2	CC(C)[C@H](NC(=O)[C@H](CO)NC(=O)[C@H](CO)NC(=O)[C@@H]1CCCN1)C(=O)N[C@@H](Cc1ccc(OP(=O)(O)O)cc1)C(=O)N[C@H](C(=O)N1CCC[C@H]1C(=O)N[C@@H](CC(=O)O)C(=O)N[C@@H](CCC(=O)O)C(=O)N[C@@H](Cc1c[nH]c2ccccc12)C(=O)N[C@@H](CCC(=O)O)C(=O)O)C(C)C [IR-pep] (H-PSSV[pY]VPDEWE-OH)
21.9	O=S(=O)(Nc1ccc2c(c1)nc(-c1ccccc1)n2CCCc1ccccc1)c1ccc(OC(F)(F)F)cc1 [N-(2-phenyl-1-(3-phenylpropyl)-1H-benzo[d]imidazol-5-yl)-4-(trifluoromethoxy)benzenesulfonamide (16)]
16	O=S(=O)(Nc1ccc2c(c1)nc(-c1ccccc1)n2CCCc1ccccc1)c1ccc(C(F)(F)F)cc1 [N-(2-phenyl-1-(3-phenylpropyl)-1H-benzo[d]imidazol-5-yl)-4-(trifluoromethyl)benzenesulfonamide (15)]
12.2	O=C(Nc1ccc2c(c1)nc(-c1ccccc1)n2CCCc1ccccc1)c1ccc(-c2ccccc2)cc1 [N-(2-phenyl-1-(3-phenylpropyl)-1H-benzo[d]imidazol-5-yl)-[1,1'-biphenyl]-4-carboxamide (24)]
